Measured values as given in ChEMBL document CHEMBL2074177, “Antifolate resistance mediated by the multidrug resistance proteins MRP1 and MRP2” (Cancer Res, 1999).

Target: ATP-binding cassette sub-family C member 2 (Homo sapiens, UniProt Q92887)
Assay: TP_TRANSPORTER: uptake in membrane vesicle from MRP2-expressing 2008 cells
Format: functional, cell membranes

Chain of ATP-binding cassette sub-family C member 2 (Q92887 whole entry): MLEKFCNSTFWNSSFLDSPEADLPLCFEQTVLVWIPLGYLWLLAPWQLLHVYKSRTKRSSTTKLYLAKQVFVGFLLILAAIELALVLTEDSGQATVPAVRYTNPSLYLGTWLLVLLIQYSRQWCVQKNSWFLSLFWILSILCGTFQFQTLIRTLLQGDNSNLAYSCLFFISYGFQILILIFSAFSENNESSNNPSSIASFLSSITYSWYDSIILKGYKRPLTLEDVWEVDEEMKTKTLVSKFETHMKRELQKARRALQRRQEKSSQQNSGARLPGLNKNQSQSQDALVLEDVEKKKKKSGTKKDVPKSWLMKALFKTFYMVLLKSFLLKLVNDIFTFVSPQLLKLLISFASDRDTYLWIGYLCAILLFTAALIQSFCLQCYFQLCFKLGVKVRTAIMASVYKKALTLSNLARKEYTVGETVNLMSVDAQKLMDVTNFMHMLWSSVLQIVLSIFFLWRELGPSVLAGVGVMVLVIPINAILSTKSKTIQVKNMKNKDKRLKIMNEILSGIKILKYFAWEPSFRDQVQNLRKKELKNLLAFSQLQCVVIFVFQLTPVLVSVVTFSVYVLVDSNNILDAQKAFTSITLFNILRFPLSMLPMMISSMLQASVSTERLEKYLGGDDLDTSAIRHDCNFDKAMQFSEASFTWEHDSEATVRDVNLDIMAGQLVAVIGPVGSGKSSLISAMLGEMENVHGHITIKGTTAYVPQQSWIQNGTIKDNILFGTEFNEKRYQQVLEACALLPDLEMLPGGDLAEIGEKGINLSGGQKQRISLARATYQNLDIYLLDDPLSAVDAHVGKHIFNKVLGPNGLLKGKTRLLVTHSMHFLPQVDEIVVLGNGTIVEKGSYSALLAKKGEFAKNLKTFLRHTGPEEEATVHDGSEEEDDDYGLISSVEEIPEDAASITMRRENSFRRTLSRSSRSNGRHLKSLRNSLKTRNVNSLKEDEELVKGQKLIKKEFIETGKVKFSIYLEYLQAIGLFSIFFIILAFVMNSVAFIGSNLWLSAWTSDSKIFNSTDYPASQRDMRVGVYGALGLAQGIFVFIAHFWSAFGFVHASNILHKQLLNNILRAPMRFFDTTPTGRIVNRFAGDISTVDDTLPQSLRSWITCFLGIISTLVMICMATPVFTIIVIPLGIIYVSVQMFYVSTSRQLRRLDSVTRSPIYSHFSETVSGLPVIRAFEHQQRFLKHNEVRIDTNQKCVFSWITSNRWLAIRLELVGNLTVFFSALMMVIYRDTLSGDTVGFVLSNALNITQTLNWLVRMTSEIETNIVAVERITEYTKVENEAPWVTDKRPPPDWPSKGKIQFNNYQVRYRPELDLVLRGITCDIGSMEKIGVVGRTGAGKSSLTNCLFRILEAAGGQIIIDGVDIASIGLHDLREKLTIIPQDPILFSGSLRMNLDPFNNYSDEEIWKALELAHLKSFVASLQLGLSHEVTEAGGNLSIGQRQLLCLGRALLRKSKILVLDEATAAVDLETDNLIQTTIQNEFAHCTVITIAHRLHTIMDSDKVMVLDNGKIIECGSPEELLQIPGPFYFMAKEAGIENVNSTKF

CN(Cc1cnc2nc(N)nc(N)c2n1)c1ccc(C(=O)N[C@@H](CCC(=O)O)C(=O)O)cc1 [METHOTREXATE]
Activity: substrate [+]
